Assay results from patent publication US4542137A, “Alkylaminodesoxy-1.4;3.6-dianhydrohexitol nitrates substituted by purine bases and pharmaceutical compositions” (priority 1980, dated 1985).
Where two headings read alike, the source gives them in different places.

Tested on: isolated guinea pig hearts
Assay: coronary flowthrough-increasing effectiveness on isolated guinea pig hearts according to Langendorff
Conditions: Cavia porcellus, 25 μg/ml in tyrode solution, Langendorff heart; for activation at 25 µg/mL: read-out: flowthrough (coronary), percentage change in comparison with the initial value
Procedure: After achieving the stationary state in the 30th minute, the hearts were each infused with 50 ml. tyrode solution with a content of test substance of, in each case, 25 μg./ml. Each test substance was tested on 3-6 hearts.
In each case, there was measured the inotropism, the flowthrough and the frequency, whereby the values given in Table I are average values of the percentage changes in comparison with the starting values.

[1] = read-out: frequency, percentage change in comparison with the initial value
[2] = read-out: inotropism, percentage change in comparison with the initial value

Row | SMILES | activation at 25 µg/mL | inhibition at 25 µg/mL [1] | inhibition at 25 µg/mL [2] | percent change from initial value at 25 µg/mL [1]
1 | Cn1c(=O)c2c(ncn2CCCN[C@H]2CO[C@H]3[C@@H]2OC[C@@H]3O[N+](=O)[O-])n(C)c1=O [Example 1d, 5-(3-Theophyllin-7-ylpropyl)-amino-5-desoxy-1.4;3.6-dianhydro-L-iditol 2-nitrate] | 56.4% | 1.95% | 1.29% | –
2 | CN(CCCn1cnc2c1c(=O)n(C)c(=O)n2C)[C@H]1CO[C@H]2[C@@H]1OC[C@@H]2O[N+](=O)[O-] [Example 9c, 5-[N-Methyl-N-(3-theophyllin-7-ylpropyl)-amino]-5-desoxy-1.4;3.6-dianhydro-L-iditol 2-nitrate] | 40.5% | – | 4.3% | 0%
